# Assay results taken from publication PMC11062894, “Protein-based bandpass filters for controlling cellular signaling with chemical inputs” (Nature Chemical Biology, 2023).
# Test system: GEMS receptors with CBPA11 (BclXL–LD3 and BclXLhigh variants), STAT3-driven SEAP in HEK293T cells
# Experiment: GEMS SEAP reporter assay, CBPA11 (BclXLhigh, LD3-v and BclXL-v variants) with A-1155463
# Type: cell-based
# Design: key to Raw data (SEAP) / SEAP, replicate values / Raw data of Figure 5b / Raw data Figure 5e / Raw data of Independent repeat of CBPA11-v1 vs CBPA11-v1-LD3v3 / Raw data of Independent repeat of CBPA11-v3 vs CBPA11-v3-LD3v3 / Raw data of Figure 5b, CBPA11-v1-LD3v3 (SEAP reporter raw value, single replicate) / Raw data of Figure 5b, CBPA11-v1 (SEAP reporter raw value, single replicate): SEAP activity in U/L in culture supernatant
# Conditions: SuppFigure 9c
# Description: To rationally design a CBP responding to a chemical input, we used BclXL as the druglow receptor, LD3 as the designed binder and a designed BclXL variant as the drughigh receptor (referred to as BclXLhigh) to construct a CBP responsive to BclXL inhibitors (Fig. 4a). To design BclXLhigh, we used a multistate design computational protocol described elsewhere[26] […] Thus, BclXLhigh-v(1–3) were chosen as the functional drughigh receptors, resulting in three A-1155463-controlled CBPs (referred to as CBPA11-v(1–3)) (Fig. 4c–e).
# HEK293T cells were seeded in a 96-well plate 24 h before transfection. The transfection mix in each well consisted of 3 ng of constitutive human CMV promoter driven mammalian STAT3 expression vector (PhCMV-STAT3-pA), 30 ng of STAT3-induced reporter expression (OStat3-PhCMVmin-SEAP-pA) and 50 ng of expression vectors for each GEMS receptor chain (PSV40-IgK-(drughigh receptor)-EpoRm-IL-6RBm-pA and PSV40-IgK-(druglow receptor-GGGGSX3-LD3)-EpoRm-IL-6RBm-pA). For the specific drughigh receptor and druglow receptor used in the different cellular assays, they are indicated as wild type or with mutations. Then, plasmid DNA was mixed with 50 μl opti-MEM (Thermo Fisher) and 600 ng of polyethyleneimine (Polysciences, catalog no. 24765-1). For drug treatment experiments, drugs were added 12 h post-transfection and incubated with cells for 24 h before the SEAP reporter detection assay.
# SEAP activity (U l^−1) in cell culture supernatants was quantified by kinetic measurements at 405 nm (1 minute per measurement for 30 cycles) of absorbance increase due to phosphatase-mediated hydrolysis of para-nitrophenyl phosphate (pNPP).
# Binding affinities of SPR drug competition assays were calculated using three-parameter nonlinear regression in GraphPad Prism (v.8.3.0). Representative data of cell assays are presented as individual values and mean values (bars). n = 3 refers to biological replicates. All IC50 or EC50 values of cell assays reported were calculated using four-parameter nonlinear regression ± s.d. Bandpass features of cutoff concentrations and Bandwidth90% were estimated based on the curve fitted using bell-shaped curve nonlinear regression in GraphPad Prism (v.8.3.0). […]
# Supplementary Figure 4: Design, screening and validation of BclXLhigh variants. a) Screening of BclXLhigh variants in the GEMS platform. […]
# Dissociation constant measurement of BclXLhigh-v(1-3) and LD3. Equilibrium curves are fitted using […]
# BclXLhigh-v1 (purple), BclXLhigh-v2 (blue), […]
# a) Bcl2high-based bandpass filter designs were developed and to respond to different concentrations of […]
# corresponding inhibitor. c) Screening of Bcl2high-based bandpass filter variants in the GEMS platform.
# The designed binder LD3 was fused to the druglow-receptor (PSV40-IgK-Bcl2-LD3-EpoRm-IL-6RBm-pA) in one EpoR chain and Bcl2high variants with the insensitive Bcl2 (iBcl2) as control in the other EpoR chain (PSV40-IgK-Bcl2high-EpoRm-IL-6RBm-pA). HEK293T cells were transfected with indicated […]
# the mean of six biological replicates ± s.d., overlaid with a scatter dot plot of the original data points.
# (1 picture or pasted object on this page, not shown here)
# Supplementary Figure 6: Binding affinities and drug resistances of Bcl2high-v(2,4,5) assessed by […]
# a) Measurement of dissociation constants for Bcl2high-v(2,4,5) and LD3 interactions. Equilibrium curves […]
# Bcl2high-v(2,4,5) measured by SPR. 5 μM of Bcl2 or indicated variants were mixed with 10 μM of […]
# Bcl2high-v2 (red), Bcl2high-v4
# Supplementary Figure 7: Screening of LD3 variants in CBPA11-v(1-3) and raw data of CBPA11-v(1,3) with LD3-v3 variant. a-c) Screening of LD3 and LD3-v(1-3) variants in complex with BclXL for more sensitive CBPA11-v1 (a), CBPA11-v2 (b), CBPA11-v3 (c) in the GEMS platform. The LD3 variants replaced the role of LD3 (PSV40-IgK-BclXL-LD3-v(1-3)-EpoRm-IL-6RBm-pA) in one EpoR chain and BclXLhigh-v(1-3) in the other EpoR chain (PSV40-IgK-BclXLhigh-V(1-3)-EpoRm-IL-6RBm-pA). HEK293T cells were transfected with […]
compound,measurement,setting,value
CN(C)CC#Cc1ccc(OCCCc2sc(N3CCc4cccc(C(=O)Nc5nc6ccccc6s5)c4C3)nc2C(=O)O)c(F)c1 [A-1155463],Raw data (SEAP),"LD3, A-1155463 316 nM",61.2138
same,Normalized data (SEAP),"LD3, A-1155463 1000 nM",55.4364
same,Raw data (SEAP),"LD3, A-1155463 1000 nM",44.3919
same,Normalized data (SEAP),"LD3, A-1155463 3160 nM",36.9566
same,Raw data (SEAP),"LD3, A-1155463 3160 nM",29.5938
same,Normalized data (SEAP),"LD3, A-1155463 10000 nM",17.181
same,Raw data (SEAP),"LD3, A-1155463 10000 nM",13.758
same,Normalized data (SEAP),"LD3v1, A-1155463 1 nM",5.697
same,Raw data (SEAP),"LD3v1, A-1155463 1 nM",3.397
same,Normalized data (SEAP),"LD3v1, A-1155463 3.16 nM",9.008
same,Raw data (SEAP),"LD3v1, A-1155463 3.16 nM",5.371
same,Normalized data (SEAP),"LD3v1, A-1155463 10 nM",34.145
same,Raw data (SEAP),"LD3v1, A-1155463 10 nM",20.3588
same,Normalized data (SEAP),"LD3v1, A-1155463 31.6 nM",55.6344
same,Raw data (SEAP),"LD3v1, A-1155463 31.6 nM",33.1716
same,Normalized data (SEAP),"LD3v1, A-1155463 100 nM",100
same,Raw data (SEAP),"LD3v1, A-1155463 100 nM",59.6244
same,Normalized data (SEAP),"LD3v1, A-1155463 316 nM",84.0823
same,Raw data (SEAP),"LD3v1, A-1155463 316 nM",50.1335
same,Normalized data (SEAP),"LD3v1, A-1155463 1000 nM",65.4287
same,Raw data (SEAP),"LD3v1, A-1155463 1000 nM",39.0114
same,Normalized data (SEAP),"LD3v1, A-1155463 3160 nM",35.6708
same,Raw data (SEAP),"LD3v1, A-1155463 3160 nM",21.2685
same,Normalized data (SEAP),"LD3v1, A-1155463 10000 nM",16.487
same,Raw data (SEAP),"LD3v1, A-1155463 10000 nM",9.83
same,Normalized data (SEAP),"LD3v2, A-1155463 1 nM",18.0278
same,Raw data (SEAP),"LD3v2, A-1155463 1 nM",19.4289
same,Normalized data (SEAP),"LD3v2, A-1155463 3.16 nM",13.8407
same,Raw data (SEAP),"LD3v2, A-1155463 3.16 nM",14.9163
same,Normalized data (SEAP),"LD3v2, A-1155463 10 nM",72.4321
same,Raw data (SEAP),"LD3v2, A-1155463 10 nM",78.0614
same,Normalized data (SEAP),"LD3v2, A-1155463 31.6 nM",98.2639
same,Raw data (SEAP),"LD3v2, A-1155463 31.6 nM",105.901
same,Normalized data (SEAP),"LD3v2, A-1155463 100 nM",100
same,Raw data (SEAP),"LD3v2, A-1155463 100 nM",107.772
same,Normalized data (SEAP),"LD3v2, A-1155463 316 nM",90.2158
same,Raw data (SEAP),"LD3v2, A-1155463 316 nM",97.2273
same,Normalized data (SEAP),"LD3v2, A-1155463 1000 nM",79.3099
same,Raw data (SEAP),"LD3v2, A-1155463 1000 nM",85.4738
same,Normalized data (SEAP),"LD3v2, A-1155463 3160 nM",45.5807
same,Raw data (SEAP),"LD3v2, A-1155463 3160 nM",49.1232
same,Normalized data (SEAP),"LD3v2, A-1155463 10000 nM",26.3886
same,Raw data (SEAP),"LD3v2, A-1155463 10000 nM",28.4395
same,Normalized data (SEAP),"LD3v3, A-1155463 1 nM",53.0121
same,Raw data (SEAP),"LD3v3, A-1155463 1 nM",3.893
same,Normalized data (SEAP),"LD3v3, A-1155463 3.16 nM",45.4436
same,Raw data (SEAP),"LD3v3, A-1155463 3.16 nM",3.337
